IC50 data for 11 compounds are collected here from patent publication US20240415819A1, “MACROCYCLIC COMPOUNDS AS PROTEASOME SUBUNIT BETA TYPE-5 INHIBITORS” (Lead Discovery Center GmbH, priority 2021, published 2024).

In test [1] the target is T1, β5 subunit of the human immunoproteasome (IPS) (Homo sapiens, UniProt P28062).
T1 construct: purchased Boston Biochem E-370
The experiment in a line: β5 inhibition assay, human immunoproteasome (Suc-LLVY-AMC). As to conditions: IC50 class, Suc-LLVY-AMC substrate. It is filed as biochemical. The procedure:
The enzymatic activity of the β5 subunit of the human constitutive proteasome (CPS) is analyzed. In another assay, which differs from the assay of the human constitutive proteasome only in using the human immunoproteasome (IPS) the enzymatic activity of the β5 subunit of the human immunoproteasome (IPS) is analyzed. Incubation of the enzyme with its fluorogenic substrate Suc-LLVY-AMC leads to liberation of the fluorescent dye AMC which can be measured with a suitable plate reader. • 100 mM HEPES pH7.5 • 50 mM NaCl • 0.02% SDS • 1 mM DTT (add fresh) • Victor X5 (Perkin Elmer) • Label: Umbeliferone (0.1s) • Excitation wavelength: 355 nm • Emission wavelength: 460 nm • 4 μl human cPS or IPS enzyme in assay buffer (final assay concentration 1 nM) or 4 μl assay buffer for negative controls • Compound addition via acoustic dispenser (Echo 520, Labcyte) • Mix and incubate @ RT for 10 min • 4 μl Suc-LLVY-AMC substrate (final assay concentration 22.6 μM) • Mix and incubate @ RT for 4 h (dark) • Stop reaction with 4 μl Bortezomib (final assay concentration 1 μM) • 15 min @ RT • Measure (Excitation 355 nm; Emission 460 nm)

The next test has as its system HT-29 cells. Nature of the test: CellTiter-Glo luminescent cell viability assay with HT-29 cells (72h incubation). It is filed as cell-based, human. The following applies: Homo sapiens, HT-29, HT29 cells, read-out: CTG HT29. Here is the method:
Cell Titer Glo Viability Assay with HT-29 Cells (72h Incubation) The CellTiter-Glo Luminescent Cell Viability Assay (Promega) is a homogeneous method of determining the number of viable cells in culture. It is based on quantification of ATP, indicating the presence of metabolically active cells. On day 1 400 HT-29 cells per well are seeded in white 384well plates (Greiner, #781080) in 25 μl cell culture medium (DMEM (PAN-Biotech #P04-03590)+10% FCS+glutamine). After incubation for 24 h at 37° C./5% CO2 compounds or DMSO are added at different concentrations by Echo Liquid Handling Technology. Cells are further incubated in humidified chambers for 72 h at 37° C. and 5% CO2. Cells treated with the compound vehicle DMSO are used as positive controls and cells treated with 10 μM Staurosporine serve as negative controls. At day 5-72h after compound addition—the CellTiter Glo Reagent is prepared according to the instructions of the kit (Promega Inc.): Reagent is mixed 1:1 with cell culture medium. Thereon, mixture and assay plates are equilibrated at room temperature for 20 min. Equal volumes of the reagent-medium-mixture is added to the volume of culture medium present in each well. The plates are mixed at […] for 2 minutes on an orbital shaker. The microplates are then incubated at room temperature for 10 minutes for stabilization of the luminescent signal. Following incubation the luminescence is recorded on a Victor microplate reader (Perkin Elmer) using a 200 ms integration time. The data is then analyzed with Excel using the XLFIT Plugin (dose response Fit 205) for IC50-determination. As quality control the Z′-factor is calculated from 16 positive and negative control values. […] Inhibition is indicated as IC50 [nM] (“-”=not measured).
A general note: ATP-based viability assays read luminescence as a measure of living cells.

The target in test [2] is T2, β5 subunit of the human constitutive proteasome (CPS) (Homo sapiens, UniProt P28074).
T2 construct: purchased Boston Biochem E-360
The experiment in a line: β5 inhibition assay, human constitutive proteasome (Suc-LLVY-AMC). The following applies: IC50 class, Suc-LLVY-AMC substrate. It is filed as biochemical. Here is the method: The enzymatic activity of the β5 subunit of the human constitutive proteasome (CPS) is analyzed. In another assay, which differs from the assay of the human constitutive proteasome only in using the human immunoproteasome (IPS) the enzymatic activity of the β5 subunit of the human immunoproteasome (IPS) is analyzed. […] Inhibition is indicated as IC50 [nM] (“-”=not measured).

Test [3] concerns A549 (human lung carcinoma cell line). Nature of the test: Glo assay of A549 cells (Table 3; ProteasomeGlo plating scheme). The following applies: Homo sapiens; A549 cells; read-out: PGLo A549. It is filed as cell-based. The text has this:
Inhibition is indicated as IC50 [nM] (“-”=not measured). […] • Chymotrypsin-Like Cell-Based Proteasome-GloTM Assay (Promega; […]) • Cell culture 384-well plates (Greiner BioOne; 781080) • Dispensing cassette, MultiDrop Standard tube dispensing cassette (Thermo Scientific; 24072670) • DPBS (Pan BioTech; P04-36500) • Cell culture 384-well plates (Greiner BioOne; 781080) • CPD source plate: diamond-shape plate (Labcyte; LP-0200) • Intermediate plate (Labcyte; P-05525) [table] • a. Remove the plates with cells from the incubator. • b. Take all the plates including the compound plate, intermediate plate and Staurosporine plate to the ECHO. • c. Click on “Open” in the ECHO software and select the protocol “QLI5_25ul_30 uM-Grenier”. • d. Follow the on-screen prompts and instructions once you click “Start” to insert the compound plate, intermediate plate and destination plates. • e. Change the final number of destination plates on the program. • f. Follow the on-screen prompts and instructions once you click “Start” to load the Staurosporine and destination plates. • g. Once all the compounds, DMSO and Staurosporine have been transferred, place the destination plates in a wet tissue box. • h. Place the destination plates back into the incubator and incubate at 37° C., 5% CO2 for 105 minutes. • i. Re-seal all the compound+Stauro diamond and intermediate plates and store in the dark. Chymotrypsin like ProteasomeGlo Assay • 1. Thaw the components of the ProteasomeGlo assay at room temperature including the ProteasomeGlo Buffer, the lyophilized Luciferin Detection Reagent and the Suc-LLVY-Glo Substrate. • 2. Reconstitute the Luciferin Detection Reagent in the amber coloured bottle by adding 50 ml of the ProteasomeGlo Buffer. • 3. Vortex the Suc-LLVY-Glo Substrate briefly to reconstitute the Substrate well. • 4. Spin down the Substrate and add 250 μl of the Substrate to the reconstituted Luciferin Detection Reagent from step 2. • 5. Briefly vortex the amber bottle with the mix to prepare a homogenous solution. • 6. Place the mix prepared in step 5 to sit at room temperature for 60 minutes. • 7. After 60 minutes, pipette 25 μl of the mix from step 5 into all wells with the cells. • 8. Shake the plates for 2-5 minutes to ensure the complete mixing of the ProteasomeGlo reagent with the cells. • 9. Leave the plates in the dark for 10-15 minutes. • 10. Measure the luminescence read-out using the Viktor and the protocol “Luminescence_384Well_0.2 sec”. (Note: The Protoeasome-GloTM Reagent (combined Proteasome-GloTM Substrate, Proteasome-GloTM Buffer and Luciferin Detection Reagent) can be stored at 4° C. or -20° C. for 1 month with minimal loss of activity.)

`CCOC(C(=O)N[C@H]1CC(=O)N2CCCC(CCOc3ccc(C)c(c3)CNC(=O)[C@H](CCc3ccccc3)NC1=O)C2)c1ccc(NC(C)=O)cc1` (stereo partly drawn) [Compound 324, 2-(4-acetamidophenyl)-2-ethoxy-N-((9S,12S)-5^4-methyl-8,11,14-trioxo-9-phenethyl-4-oxa-7,10-diaza-1(3,1)-piperidina-5(1,3)-benzenacyclotetradecaphane-12-yl)acetamide]: the IC50 (in test [1]; in the test with HT-29 cells; in test [2]; in test [3]) was < 100 nM each time.
Regarding `CC(=O)N[C@H]1CCC(=O)N2CCC2(C)COc2ccc(C)c(c2)CNC(=O)[C@H](CCc2ccccc2)NC1=O` (stereo partly drawn) [Compound 265, N-((8S,11S)-1^2,4^4-dimethyl-7,10,14-trioxo-8-phenethyl-3-oxa-6,9-diaza-1(2,1)-azetidina-4(1,3)-benzenacyclotetradecaphane-11-yl)acetamide], the IC50 in test [1] is 100 to 500 nM; with HT-29 cells, 100 to 500 nM; in test [3] it was > 5000 nM.
In the case of `Cc1ccc2cc1CNC(=O)[C@H](CCc1ccccc1)NC(=O)[C@@H](NC(=O)C1(c3ccc(N)cc3)CCC1)CC(=O)N1CCCC(CCO2)C1` (stereo partly drawn) [Compound 306, 1-(4-aminophenyl)-N-((9S,12S)-5^4-methyl-8,11,14-trioxo-9-phenethyl-4-oxa-7,10-diaza-1(3,1)-piperidina-5(1,3)-benzenacyclotetradecaphane-12-yl)cyclobutane-1-carboxamide], the IC50 (in test [1]; with HT-29 cells; in test [2]) was < 100 nM throughout.
As for `Cc1ccc2cc1CNC(=O)[C@H](CCc1ccccc1)NC(=O)[C@@H](NC(=O)C1(c3ccc(N)cc3)CC1)CC(=O)N1CCCC(CCO2)C1` (stereo partly drawn) [Compound 307, 1-(4-aminophenyl)-N-((9S,12S)-5^4-methyl-8,11,14-trioxo-9-phenethyl-4-oxa-7,10-diaza-1(3,1)-piperidina-5(1,3)-benzenacyclotetradecaphane-12-yl)cyclopropane-1-carboxamide], the IC50 (in test [1]; in the test on HT-29 cells; in test [2]) was < 100 nM in each case.
Regarding `Cc1ccc2cc1CNC(=O)[C@H](CCc1ccccc1)NC(=O)[C@@H](NC(=O)c1cccc3c1CNCC3)CC(=O)N1CCCC(CCO2)C1` (stereo partly drawn) [Compound 316, N-((9S,12S)-5^4-methyl-8,11,14-trioxo-9-phenethyl-4-oxa-7,10-diaza-1(3,1)-piperidina-5(1,3)-benzenacyclotetradecaphane-12-yl)-1,2,3,4-tetrahydroisoquinoline-5-carboxamide], the IC50 (in test [1]; in the test on HT-29 cells; in test [2]) was < 100 nM throughout.
With `Cc1ccc2cc1CNC(=O)[C@H](CCc1ccccc1)NC(=O)[C@@H](NC(=O)OCc1ccccc1)CC(=O)N1CC(CCO2)CCC1C` (stereo partly drawn) [Compound 315, benzyl ((9S,12S)-1^6,5^4-dimethyl-8,11,14-trioxo-9-phenethyl-4-oxa-7,10-diaza-1(3,1)-piperidina-5(1,3)-benzenacyclotetradecaphane-12-yl)carbamate], the IC50 (in test [1]; in the test with HT-29 cells; in test [2]) was < 100 nM throughout.
Regarding `Cc1ccc2cc1CNC(=O)[C@H](CCc1ccccc1)NC(=O)[C@@H](NC(=O)C(C)(C)c1ccc(N)cc1)CC(=O)N1CCCC(CCO2)C1` (stereo partly drawn) [Compound 308, 2-(4-aminophenyl)-2-methyl-N-((9S,12S)-5^4-methyl-8,11,14-trioxo-9-phenethyl-4-oxa-7,10-diaza-1(3,1)-piperidina-5(1,3)-benzenacyclotetradecaphane-12-yl)propanamide], the IC50 (in test [1]; in the test with HT-29 cells; in test [2]) was < 100 nM each time.
For the compound `Cc1cc(CC(=O)N[C@H]2CC(=O)N3CCCC(CCOc4ccc(C)c(c4)CNC(=O)[C@H](CCc4ccccc4)NC2=O)C3)ccc1N` (stereo partly drawn) [Compound 303, 2-(4-amino-3-methylphenyl)-N-((9S,12S)-5^4-methyl-8,11,14-trioxo-9-phenethyl-4-oxa-7,10-diaza-1(3,1)-piperidina-5(1,3)-benzenacyclotetradecaphane-12-yl)acetamide], the IC50 (in test [1]; with HT-29 cells; in test [2]) was < 100 nM throughout.
For `Cc1ccc2cc1CNC(=O)[C@H](CCc1ccccc1)NC(=O)[C@@H](NC(=O)C1(c3ccc(N)cc3)CCCC1)CC(=O)N1CCCC(CCO2)C1` (stereo partly drawn) [Compound 305, 1-(4-aminophenyl)-N-((9S,12S)-5^4-methyl-8,11,14-trioxo-9-phenethyl-4-oxa-7,10-diaza-1(3,1)-piperidina-5(1,3)-benzenacyclotetradecaphane-12-yl)cyclopentane-1-carboxamide], the IC50 (in test [1]; in the test on HT-29 cells; in test [2]) was < 100 nM each time.
As for `Cc1ccc2cc1CNC(=O)[C@H](CCc1ccccc1)NC(=O)[C@@H](NC(=O)Cc1ccc(N)cc1F)CC(=O)N1CCCC(CCO2)C1` (stereo partly drawn) [Compound 318, 2-(4-amino-2-fluorophenyl)-N-((9S,12S)-5^4-methyl-8,11,14-trioxo-9-phenethyl-4-oxa-7,10-diaza-1(3,1)-piperidina-5(1,3)-benzenacyclotetradecaphane-12-yl)acetamide], the IC50 (in test [1]; with HT-29 cells; in test [2]) was < 100 nM in each case.
Take `Cc1ccc2cc1CNC(=O)[C@H](CCc1ccccc1)NC(=O)[C@@H](NC(=O)Cc1ccc(N)cc1C)CC(=O)N1CCCC(CCO2)C1` (stereo partly drawn) [Compound 304, 2-(4-amino-2-methylphenyl)-N-((9S,12S)-5^4-methyl-8,11,14-trioxo-9-phenethyl-4-oxa-7,10-diaza-1(3,1)-piperidina-5(1,3)-benzenacyclotetradecaphane-12-yl)acetamide]: the IC50 (in test [1]; in the test with HT-29 cells; in test [2]) was < 100 nM each time.
